Values after ≈ are worked out from the molar mass of the structure shown. “Also recorded” adds a separate entry of the source. Bridge positions count the residues as written; N and C are the ends. Square brackets hold non-standard residues; d marks the D form. Peptide text beside a SMILES is read from it. NMeF = CN[C@@H](Cc1ccccc1)C(=O)O
Legend:
[1] = target: Enterobacter cloacae MsbA (EnMsbA); assay: MsbA ATPase assay, amphipol-reconstituted homologue; assay type: biochemical; conditions: FIGS. 13A, 13C
Protocol: (§1) The ATPase activity of MsbA was measured using a Transcreener ADP2 FP Assay (BellBrook Labs). […] The final condition for the reaction was MsbA enzyme, 50 μM ATP in 50 mM Tris pH 7.5, 10 mM MgCl2, 1% glycerol, 0.1% bovine gamma globulin, 1 mM dithiothreitol (DTT), 0.007% Brij-35 and 0.5% dimethylsulfoxide (DMSO). The following concentrations were used for each MsbA variant: 5 nM of EcMsbA, EnMsbA, KpMsbA and 80 nM PaMsbA reconstituted in amphipol, 15 nM EcMsbA and EcMsbA-chim5 in LMNG detergent, 22 nM EcMsbA and 27 nM EcMsbA-12G7 complex in aDDM detergent. The enzyme reaction was incubated for 1 hour at room temperature, then quenched by adding the Transcreener Detection Buffer. The IC50 was determined by fitting the inhibition dose-response curve with a nonlinear four-parameter inhibition model (GraphPad Prism).

[2] = target: T1, Pseudomonas aeruginosa MsbA (PaMsbA) (Pseudomonas aeruginosa, UniProt Q9HUG8); assay: as above; assay type: biochemical
T1 construct: FLAG; made in house; host or cells: not restated ('similarly expressed')
T1 sequence (Q9HUG8 1-603): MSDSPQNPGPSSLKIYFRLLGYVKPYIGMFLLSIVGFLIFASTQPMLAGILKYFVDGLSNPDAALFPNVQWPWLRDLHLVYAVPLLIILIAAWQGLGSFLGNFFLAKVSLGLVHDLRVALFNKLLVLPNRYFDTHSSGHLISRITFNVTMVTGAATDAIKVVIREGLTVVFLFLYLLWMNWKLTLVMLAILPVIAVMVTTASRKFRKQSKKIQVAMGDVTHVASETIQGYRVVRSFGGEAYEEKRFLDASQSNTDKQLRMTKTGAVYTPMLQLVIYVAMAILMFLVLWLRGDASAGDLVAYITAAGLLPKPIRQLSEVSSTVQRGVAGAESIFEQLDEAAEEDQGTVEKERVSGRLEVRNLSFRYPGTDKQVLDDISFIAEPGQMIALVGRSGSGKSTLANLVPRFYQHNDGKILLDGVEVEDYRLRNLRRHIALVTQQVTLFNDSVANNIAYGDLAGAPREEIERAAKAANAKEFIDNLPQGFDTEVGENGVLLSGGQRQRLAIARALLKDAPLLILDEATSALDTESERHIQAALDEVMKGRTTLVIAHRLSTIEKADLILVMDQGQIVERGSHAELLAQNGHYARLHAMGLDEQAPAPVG
Protocol: as §1

[3] = target: Klebsiella pneumoniae MsbA (KpMsbA); assay: as above; assay type: biochemical; conditions: FIGS. 13A, 13C
Protocol: as §1

E. coli MsbA (EcMsbA) = target: T2, E. coli MsbA (EcMsbA) (Escherichia coli, UniProt P60752); assay: MsbA ATPase assay (Transcreener ADP2 FP); assay type: biochemical
T2 construct: FLAG (N); made in house; host or cells: E. coli (strain for the WT protein not restated)
T2 sequence (P60752 whole entry): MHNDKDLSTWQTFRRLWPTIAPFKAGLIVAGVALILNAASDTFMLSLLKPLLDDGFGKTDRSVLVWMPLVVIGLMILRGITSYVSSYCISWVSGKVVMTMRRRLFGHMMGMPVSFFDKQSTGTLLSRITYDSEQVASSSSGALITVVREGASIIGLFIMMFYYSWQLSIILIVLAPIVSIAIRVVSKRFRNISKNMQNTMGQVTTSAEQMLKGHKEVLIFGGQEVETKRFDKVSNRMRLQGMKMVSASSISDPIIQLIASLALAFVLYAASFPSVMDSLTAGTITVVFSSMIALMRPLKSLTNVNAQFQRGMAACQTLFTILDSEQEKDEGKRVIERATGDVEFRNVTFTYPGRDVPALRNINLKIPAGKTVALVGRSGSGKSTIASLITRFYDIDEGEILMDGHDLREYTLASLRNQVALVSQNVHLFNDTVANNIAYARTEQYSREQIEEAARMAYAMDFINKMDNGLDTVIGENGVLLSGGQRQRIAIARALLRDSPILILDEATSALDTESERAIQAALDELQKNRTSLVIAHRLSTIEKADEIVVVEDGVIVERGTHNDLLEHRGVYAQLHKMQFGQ
Protocol: as §1

[4] = test system: imp E. coli (lptD(imp4213)), E. coli MsbA; assay: Broth MIC assay; assay type: cell-based, Escherichia coli; conditions: cells containing the lptD(imp4213) allele
Protocol: Broth MICs were determined in cation-adjusted Mueller-Hinton broth with 0.002% Tween-80, as previously described (Ho et al., 2018).

[5] = test system: WT E. coli cells with an intact outer membrane (CFT073, UPEC WT); assay: Cellular IC50 determination (BacTiter-Glo, 6 hours); assay type: cell-based, Escherichia coli
Protocol: The cellular IC50's of various bacterial strains (Table 2) were determined.
200 nL aliquots of eight 2-fold dilutions of each compound were dispensed in duplicate into 384-well plates using an Echo Liquid Handler (Labcyte). Strains were grown in cation-adjusted Mueller Hinton Broth with 0.002% Tween overnight for 16 hours, washed with PBS, resuspended at OD600=1 in cation-adjusted Mueller Hinton Broth with 0.002% Tween and 10% glycerol, and frozen in […] aliquots. For each experiment, aliquots were thawed on ice and diluted 1:1000 into cation-adjusted Mueller Hinton Broth with 0.002% Tween. 10 μL cells/well were added to 384-well plates containing compound. Plates were incubated for 6 hours at 37° C., then 10 μL BacTiter-Glo reagent (Promega) was added to each well and luminescence was measured. IC50's were calculated using Genedata Screener software.

[6] = test system: E. coli CFT073 lptD(imp4213) cells; assay: Electron microscopy of inhibitor-exposed cells (membrane phenotype, LPS transport); assay type: cell-based, Escherichia coli
From the text: In some embodiments, one or more functional assays may be performed to test the effect of molecules identified in a screen on the function of the parental ABC transporter. For example, in some cases, a molecule that binds to the periplasmic, extracellular, and/or luminal face of an ABC transporter acts as an inhibitor of the transporter. For example, if inhibition of an ABC transporter activity is expected to result in loss of cell viability or reduction of cell growth, for example, then a cell viability or growth assay can be conducted to determine if presence of the identified molecule affects these parameters. In some cases, other assays may be conducted to determine the impact of a molecule on the function of the transporter. In some cases, the transport of the transporter's substrate in the presence and absence of the molecule can be tested. […] Lack of LPS transport causes a stacking of inner and outer membranes at the surface of a bacterial cell that is clearly visible by EM. Appropriate functional assays for the ABC transporter in question are known or may be readily developed based on knowledge in the art.
Electron microscopy of E. coli CFT073 lptD(imp4213) or CFT073 lptD(imp4213) msbA-cond-ko cells rescued with pLMG18 plasmids expressing the indicated E. coli MsbA mutants was performed as described previously (Ho et al., 2018). […]

[7] = test system: EcMsbA-chim5 (MsbA-chimera5); assay: biochemical; assay type: biochemical, Escherichia coli; conditions: ratio of ATPase IC50s
Protocol: as §1

[8] = target: T3, EcMsbA-chim5 (MsbA-chimera5) (Escherichia coli, UniProt P60752, D53T/D54Y/D60K/DEL268-292/DEL57-57/F265A/G55I/I169L/INS266IAYAGNRVIHEDMRSGALIAFIAAL/INS66P/K49D/K58D/L171A/L263V/L51V/L52I/M159V/M67L/P68V/S164D/S62H/T59E/V63D/Y163E); assay: biochemical; assay type: biochemical
T3 construct: FLAG (N); made in house; host or cells: E. coli Rosetta 2 (DE3), pET-52b vector
T3 sequence (P60752 with tags, fused parts or gaps with the stated changes): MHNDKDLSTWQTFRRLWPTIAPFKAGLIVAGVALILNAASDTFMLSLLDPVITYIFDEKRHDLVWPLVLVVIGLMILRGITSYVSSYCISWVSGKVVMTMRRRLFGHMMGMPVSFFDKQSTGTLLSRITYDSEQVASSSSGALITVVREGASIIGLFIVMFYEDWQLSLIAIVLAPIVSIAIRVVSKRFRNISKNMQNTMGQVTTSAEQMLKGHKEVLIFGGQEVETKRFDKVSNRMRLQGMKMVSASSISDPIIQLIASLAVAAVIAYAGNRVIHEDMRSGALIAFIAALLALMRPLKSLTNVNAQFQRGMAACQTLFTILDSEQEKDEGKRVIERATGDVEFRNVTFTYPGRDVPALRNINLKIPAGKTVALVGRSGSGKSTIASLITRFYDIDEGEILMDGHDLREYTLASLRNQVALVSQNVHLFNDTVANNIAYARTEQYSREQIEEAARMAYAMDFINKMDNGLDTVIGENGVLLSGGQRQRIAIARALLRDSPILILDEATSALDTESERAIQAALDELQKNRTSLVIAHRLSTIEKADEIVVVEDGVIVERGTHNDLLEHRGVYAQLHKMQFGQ
Protocol: as §1

CC(C)C[C@@H]1NC(=O)[C@H](Cc2c[nH]c3ccccc23)NC(=O)[C@H](Cc2c[nH]c3ccccc23)NC(=O)[C@H](Cc2ccccc2)NC(=O)CSC[C@@H](C(=O)NCC(N)=O)NC(=O)[C@H](C(C)C)NC(=O)[C@H](Cc2ccccc2)N(C)C(=O)[C@H](Cc2c[nH]c3ccccc23)NC(=O)[C@H](Cc2c[nH]c3ccccc23)NC(=O)[C@H](CO)NC(=O)[C@H](C(C)C)NC(=O)[C@H](CC(=O)O)NC(=O)[C@H](CC(=O)O)NC(=O)[C@H](Cc2c[nH]c3ccccc23)NC1=O [Compound G1118] ({CH2CO}-FWWLWDDVSWW[NMeF]VCG-NH2; thioether N-14)
IC50 [1]: ~240 nM
IC50 [2]: 3100 nM
IC50 [3]: ~120 nM
IC50 (E. coli MsbA (EcMsbA); IC50 for binding to MsbA in an imp E. coli strain, worded as binding to MsbA in imp E. coli strain (outer membrane permeable), FIG. 3F): 5 nM
IC50 (E. coli MsbA (EcMsbA); half-maximum inhibitory concentration (IC50), ATPase activity of EcMsbA, purified WT EcMsbA, FIG. 3C): ~110 nM
minimum inhibitory concentration (MIC) [4]: ~210 µg/mL (≈ 101 µM)
activity on WT E. coli with an intact outer membrane [5]: no activity was observed
LPS transport activity of E. coli MsbA [6]: inhibit LPS transport activity
inner membrane elaboration / membrane stacking phenotype ([6]; electron micrographs, imp cells treated with inhibitor): gave rise to the distinctive inner membrane elaboration phenotype; also recorded: mirrored the distinctive inner membrane elaboration phenotype
lower potency on purified MsbA-chim5 versus EcMsbA [7]: > 30 fold
IC50 [8]: > 5000 nM
